Data taken from patent US20060128727A1, “Fungicidal mixtures based on a triazolopyrimidine derivative” (priority 2003, published 2006).

Tested on: Plasmopara viticola
Test: Activity against peronospora of grapevines caused by Plasmopara viticola (protective spray test on potted vines)
Assay type: in vivo
Conditions: individual active compound, vines cultivar Riesling
Protocol: The active compounds, separately or jointly, were prepared as a stock solution comprising 0.25% by weight of active compound in acetone or DMSO. 1% by weight of the emulsifier Uniperol® EL (wetting agent having emulsifying and dispersant action based on ethoxylated alkylphenols) was added to this solution, and the mixture was diluted with water to the desired concentration. USE EXAMPLE
Leaves of potted vines of the cultivar “Riesling” were sprayed to runoff point with an aqueous suspension having the concentration of active compound stated below. The next day, the undersides of the leaves were inoculated with an aqueous zoospore suspension of Plasmopara viticola. The grapevines were then initially placed in a water-vapor-saturated chamber at 24° C. for 48 hours and then in a greenhouse at 20-30° C. for 5 days. After this period of time, the plants were again placed in a humid chamber for 16 hours to promote sporangiophore eruption. The extent of the development of the disease on the undersides of the leaves was then determined visually.
The visually determined percentages of infected leaf areas were converted into efficacies in % of the untreated control:
The efficacy (E) is calculated as follows using Abbot's formula: E=(1−α/β)·100 • α corresponds to the fungicidal infection of the treated plants in % and • β corresponds to the fungicidal infection of the untreated (control) plants in %
An efficacy of 0 means that the infection level of the treated plants corresponds to that of the untreated control plants; an efficacy of 100 means that the treated plants were not infected.
The expected efficacies of mixtures of active compounds were determined using Colby's formula (Colby, S. R. “Calculating synergistic and antagonistic responses of herbicide combinations”, Weeds, 15, 20-22, 1967) and compared with the observed efficacies.
Colby's Formula: E=x+y−x·y/100 • E expected efficacy, expressed in % of the untreated control, when using the mixture of the active compounds A and B at the concentrations a and b • x efficacy, expressed in % of the untreated control, when using the active compound A at the concentration a • y efficacy, expressed in % of the untreated control, when using the active compound B at the concentration b

| SMILES | Efficacy in % of the untreated control (4 ppm in the spray liquor) | Efficacy in % of the untreated control (1 ppm in the spray liquor) | Efficacy in % of the untreated control (63 ppm in the spray liquor) |
| --- | --- | --- | --- |
| CC1CCN(c2c(-c3c(F)cccc3Cl)c(Cl)nc3ncnn23)CC1 [Comparison A] | 0% | – | – |
| CC#Cc1cc(C)nc(Nc2ccccc2)n1 [II-3, (4-methyl-6-prop-1-ynylpyrimidin-2-yl)phenylamine] | 0% | 0% | 0% |
| CC1CCN(c2c(-c3c(F)cc(F)cc3F)c(Cl)nc3ncnn23)CC1 [I, 5-chloro-7-(4-methylpiperidin-1-yl)-6-(2,4,6-trifluorophenyl)-[1,2,4]triazolo[1,5-a]pyrimidine] | 56% | – | – |
| Cc1cc(C)nc(Nc2ccccc2)n1 [II-1, (4,6-dimethylpyrimidin-2-yl)phenylamine] | 0% | 0% | 0% |
| Cc1cc(C2CC2)nc(Nc2ccccc2)n1 [II-2, (4-cyclopropyl-6-methylpyrimidin-2-yl)phenylamine] | 0% | 0% | 0% |
| C[C@H](Nc1c(-c2c(F)cc(F)cc2F)c(Cl)nc2ncnn12)C(F)(F)F [Comparison B] | 11% | – | – |
